As a reminder, the IC50 is the concentration at which inhibition is half-maximal.

Structures can show the parent of a compound that is named as a salt. Where two headings read alike, the source gives them in different places.

Consider 8 compounds from patent US20100292185A1, “BETA-LACTAMASE INHIBITORS” (priority 2009, published 2010).

In one test the target is T1, SHV-5 β-lactamase (Klebsiella pneumoniae, UniProt P0A3M1).
T1 construct: expressed as native untagged proteins; made in house; host or cells: E. coli BL21(DE3)
As to the kind of experiment: β-lactamase enzyme inhibition assay (nitrocefin substrate), SHV-5. It counts as biochemical. In short, it runs like this: (§1)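 Native untagged enzymes were expressed in E. coli BL21(DE3) and purified by cation exchange and gel filtration. Compounds (100–0.005 µM, PBS pH 7.0) were preincubated with enzyme for 10 min at 37 °C, then 100 µM nitrocefin was added and read kinetically at 486 nm for 10 min. IC50 is the concentration giving 50% reduction of initial hydrolysis rate versus uninhibited controls.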

Another test deals with T2, CTX-M15 β-lactamase (Escherichia coli, UniProt Q9EXV5).
T2 construct: expressed as native untagged proteins; made in house; host or cells: E. coli BL21(DE3)
As to the kind of experiment: β-lactamase enzyme inhibition assay (nitrocefin substrate), CTXM-15. It counts as biochemical. In short, it runs like this:
as §1

Another test deals with T3, p99 AmpC β-lactamase (Enterobacter cloacae, UniProt P05364).
T3 construct: expressed as native untagged proteins; made in house; host or cells: E. coli BL21(DE3)
As to the kind of experiment: β-lactamase enzyme inhibition assay (nitrocefin substrate), P99 AmpC. Format: biochemical. The essentials:
as §1

In a further test the target is T4, KPC-2 β-lactamase (Klebsiella pneumoniae, UniProt Q9F663).
T4 construct: expressed as native untagged proteins; made in house; host or cells: E. coli BL21(DE3)
The test is described as follows: β-lactamase enzyme inhibition assay (nitrocefin substrate), KPC-2. Format: biochemical. The essentials:
as §1

Test [1] deals with T5, VIM-2 metallo β-lactamase (Pseudomonas aeruginosa, UniProt Q9K2N0).
T5 construct: made in house
The test is described as follows: β-lactamase enzyme inhibition assay (nitrocefin substrate), VIM-2. The note with it: nitrocefin 100 μM, 37° C., PBS pH 7.0; read-out: VIM-2 IC50. It counts as biochemical. The essentials:
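VIM-2 was expressed untagged in E. coli BL21(DE3) and purified by two Q sepharose anion-exchange runs plus gel filtration to >90% purity. Compounds at 100–0.005 μM in PBS pH 7.0 were preincubated with enzyme for 10 min at 37° C, then nitrocefin was added at 100 μM final. Hydrolysis was followed kinetically at 486 nm for 10 min; IC50 is the concentration halving the initial rate relative to no-inhibitor wells.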

A further test concerns the target T6, OXA-23 β-lactamase (Acinetobacter baumannii, UniProt Q9L4P2).
T6 construct: crude β-lactamase extracts were prepared from 20 ml overnight cultures; endogenous in cells; host or cells: Acinetobacter baumannii cells containing OXA-23 (crude freeze-thaw extract)
The test is described as follows: β-lactamase enzyme inhibition assay (nitrocefin substrate), OXA-23 crude extract. It counts as biochemical. The following applies: nitrocefin 100 μM, 37° C., PBS pH 7.0; read-out: OXA-23 IC50. In short, it runs like this: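 Crude enzyme came from freeze-thaw extracts of mid-log OXA-23-carrying A. baumannii grown in MH-II broth at 37° C. Inhibitors (100–0.005 μM in PBS pH 7.0) were preincubated with the enzyme for 10 min at 37° C, then 100 μM nitrocefin (final) was added and read kinetically at 486 nm for 10 min. IC50 was taken from initial hydrolysis rates relative to uninhibited controls.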

In test [2] the test system is E. coli expressing the Class A ESBL SHV-5. The test is described as follows: In vitro antibacterial assay of β-lactamase inhibition (broth microdilution MIC), E. coli SHV-5. It counts as cell-based. The note with it: in presence of Ceftazidime 8 μg/ml (Examples 1-56). In short, it runs like this:
(§2)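 MIC read by eye after 16–20 h at 37° C, with CLSI-standard inocula of strains grown 3–5 h in CAMHB containing 50 μg/mL ampicillin. Compounds tested in final 2-fold dilutions from 8 to 0.015 μg/mL together with a β-lactam antibiotic.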
(In general: Dilution methods test growth across graded concentrations, often in twofold steps.)

In test [3] the test system is K. pneumoniae expressing the Class A Extended Spectrum Beta-Lactamase (ESBL) CTX-M-15. The test is described as follows: In vitro antibacterial assay of β-lactamase inhibition (broth microdilution MIC), K. pneumoniae CTX-M-15. It counts as cell-based. The following applies: in presence of Ceftazidime 8 μg/ml (Examples 1-56). The essentials: as §2
For test [4], the system named is E. cloacae expressing the Class C P99+. The test is described as follows: In vitro antibacterial assay of β-lactamase inhibition (broth microdilution MIC), E. cloacae P99+. It counts as cell-based. The note with it: in presence of Ceftazidime 8 μg/ml (Examples 1-56). In short, it runs like this: as §2
Test [5] relates to K. pneumoniae expressing the Class A carbapenemase KPC-2. As to the kind of experiment: microbe, parasite or virus in culture. It counts as cell-based. The following applies: in presence of Ceftazidime 8 μg/ml (Examples 1-56). The essentials: as §2
Test [6] concerns P. aeruginosa expressing the Class B metallo β-lactamase VIM-2. As to the kind of experiment: In vitro antibacterial assay of β-lactamase inhibition (broth microdilution MIC), P. aeruginosa VIM-2. It counts as cell-based. The following applies: in presence of Ceftazidime 16 μg/mL (Examples 1-56). The essentials:
as §2

Setting [7] is: nitrocefin 100 μM, 37° C., PBS pH 7.0, read-out: P99 AmpC IC50.
[8] abbreviates: nitrocefin 100 μM, 37° C., PBS pH 7.0, read-out: SHV-5 IC50.
Where [9] appears, read: nitrocefin 100 μM, 37° C., PBS pH 7.0, read-out: CTXM-15 IC50.
The mark [10] stands for this setting: nitrocefin 100 μM, 37° C., PBS pH 7.0, read-out: KPC-2 IC50.

T3 sequence (P05364 21-381): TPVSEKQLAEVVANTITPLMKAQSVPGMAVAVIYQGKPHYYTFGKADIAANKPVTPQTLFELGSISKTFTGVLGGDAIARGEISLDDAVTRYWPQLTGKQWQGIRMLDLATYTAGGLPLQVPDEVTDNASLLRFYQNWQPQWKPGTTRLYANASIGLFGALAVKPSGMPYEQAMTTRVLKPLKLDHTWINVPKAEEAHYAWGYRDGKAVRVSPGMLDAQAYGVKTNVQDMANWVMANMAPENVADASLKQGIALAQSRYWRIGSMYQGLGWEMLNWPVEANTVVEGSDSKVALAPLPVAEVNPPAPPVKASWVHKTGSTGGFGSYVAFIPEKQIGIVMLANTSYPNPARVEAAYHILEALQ
T2 sequence (Q9EXV5 entry or part of it): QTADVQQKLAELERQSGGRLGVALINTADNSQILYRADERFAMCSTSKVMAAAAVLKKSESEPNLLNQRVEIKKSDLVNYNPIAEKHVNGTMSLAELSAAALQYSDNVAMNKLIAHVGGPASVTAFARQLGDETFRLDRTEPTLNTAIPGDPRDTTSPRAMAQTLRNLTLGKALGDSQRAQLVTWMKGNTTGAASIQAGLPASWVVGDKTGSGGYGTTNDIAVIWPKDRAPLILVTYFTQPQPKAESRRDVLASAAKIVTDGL
T1 sequence (P0A3M1 22-286): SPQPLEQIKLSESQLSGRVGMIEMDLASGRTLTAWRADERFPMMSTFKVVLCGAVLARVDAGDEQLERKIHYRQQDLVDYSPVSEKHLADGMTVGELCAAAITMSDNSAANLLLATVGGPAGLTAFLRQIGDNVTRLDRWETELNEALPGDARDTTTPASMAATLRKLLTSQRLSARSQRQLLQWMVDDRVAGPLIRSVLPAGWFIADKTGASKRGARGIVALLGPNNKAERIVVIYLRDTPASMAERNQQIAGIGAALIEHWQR
T4 sequence (Q9F663 25-293 limits assumed): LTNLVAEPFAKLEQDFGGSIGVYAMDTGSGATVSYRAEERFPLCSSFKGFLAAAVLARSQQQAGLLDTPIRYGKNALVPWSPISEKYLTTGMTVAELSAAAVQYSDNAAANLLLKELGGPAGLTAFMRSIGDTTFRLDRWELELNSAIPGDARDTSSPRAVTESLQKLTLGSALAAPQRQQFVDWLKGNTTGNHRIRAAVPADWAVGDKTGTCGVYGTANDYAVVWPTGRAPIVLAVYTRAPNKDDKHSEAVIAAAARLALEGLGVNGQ
T6 sequence (Q9L4P2 18-273): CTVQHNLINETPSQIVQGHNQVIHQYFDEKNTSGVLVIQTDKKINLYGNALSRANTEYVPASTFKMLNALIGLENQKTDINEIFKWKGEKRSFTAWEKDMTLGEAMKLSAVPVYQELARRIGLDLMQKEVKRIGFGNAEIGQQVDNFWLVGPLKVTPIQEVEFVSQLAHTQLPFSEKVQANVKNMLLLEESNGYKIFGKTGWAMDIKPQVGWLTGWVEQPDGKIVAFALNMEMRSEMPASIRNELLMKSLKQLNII

As for `Nc1cc(CC(=O)N[C@@H](Cc2cccc(C(=O)O)c2O)B(O)O)ccn1` [Example 45, (2R)-3-{2-[(2-amino-pyridin-4-yl-acetyl)-amino]-2-borono-ethyl}-2-hydroxy-benzoic acid formate], the IC50 against SHV-5 β-lactamase was 10 nM; against CTX-M15 β-lactamase, 0.5 nM; against p99 AmpC β-lactamase, 2 nM; against KPC-2 β-lactamase it was 6 nM; in [1], 811 nM; on OXA-23 β-lactamase, 113 nM. In addition, in [2], the “MIC of example compound, E. coli SHV-5” value amounted to 0.03 µg/mL. For the same compound, the “MIC of example compound, K. pneumoniae CTX-M-15” value (from here on “MIC … K. pneumoniae CTX-M-15”) in test [3] worked out at 0.03 µg/mL. Also, in test [4], the “MIC of example compound, E. cloacae P99+” value came out at 0.06 µg/mL. Further, the “MIC of example compound, K. pneumoniae KPC-2” value (shortened to “MIC … K. pneumoniae KPC-2”) in test [5] worked out at 0.007 µg/mL. The “MIC of example compound, P. aeruginosa VIM-2” value (“MIC … P. aeruginosa VIM-2” for short) in [6] is more than 8 µg/mL.

Consider `Br.CC(C)(O/N=C(\C(=O)N[C@@H](Cc1cccc(C(=O)O)c1O)B(O)O)c1csc(N)n1)C(=O)O` [Example 48, 3-{2(R)-[2-(2-amino-thiazol-4-yl)-2-(1-carboxy-1-methyl-ethoxyimino)-acetylamino]-2-borono-ethyl}-2-hydroxy-benzoic acid hydrobromide], for which the IC50 on SHV-5 β-lactamase is 4 nM; against CTX-M15 β-lactamase, 12 nM; at p99 AmpC β-lactamase (setting [7]), 10 nM; against KPC-2 β-lactamase, 70 nM; in test [1], more than 1000 nM; at OXA-23 β-lactamase, 670 nM. For the same compound, in test [2], the “MIC of example compound, E. coli SHV-5” value was more than 8 µg/mL. Also, the “MIC … K. pneumoniae CTX-M-15” value in test [3] is more than 8 µg/mL. In addition, in test [4], the “MIC of example compound, E. cloacae P99+” value was more than 8 µg/mL. In test [5], the “MIC … K. pneumoniae KPC-2” value turned out to be 2 µg/mL. Also, the “MIC … P. aeruginosa VIM-2” value in test [6] is more than 8 µg/mL.

For `Cl.Nc1nc(/C(=N/O)C(=O)N[C@@H](Cc2cccc(C(=O)O)c2O)B(O)O)cs1` [Example 49, 3-{2(R)-[2-(2-amino-thiazol-4-yl)-2(Z)-hydroxyimino-acetylamino]-2-borono-ethyl}-2-hydroxy-benzoic acid hydrochloride], the IC50 came out at 4 nM on SHV-5 β-lactamase; 11 nM at CTX-M15 β-lactamase; 2 nM on p99 AmpC β-lactamase (setting [7]); 34 nM against KPC-2 β-lactamase; 590 nM in [1]; 17 nM at OXA-23 β-lactamase. In addition, the “MIC of example compound, E. coli SHV-5” value in test [2] was found to be 2 µg/mL. Also, in test [3], the “MIC … K. pneumoniae CTX-M-15” value is 2 µg/mL. In test [4], the “MIC of example compound, E. cloacae P99+” value turned out to be 2 µg/mL. Further, in test [5], the “MIC … K. pneumoniae KPC-2” value was 0.12 µg/mL. Further, the “MIC … P. aeruginosa VIM-2” value in test [6] is more than 8 µg/mL.

For `C/C(=N/O)C(=O)N[C@@H](Cc1cccc(C(=O)O)c1O)B(O)O` [Example 54, 3-[2(R)-(2-hydroxyimino-propionylamino)-2-borono-ethyl]-2-hydroxy-benzoic acid], the IC50 is 48 nM on SHV-5 β-lactamase; 5 nM at CTX-M15 β-lactamase; 2 nM at p99 AmpC β-lactamase (setting [7]); 10 nM against KPC-2 β-lactamase; more than 1000 nM in test [1]; 494 nM on OXA-23 β-lactamase. Besides, in [2], the “MIC of example compound, E. coli SHV-5” value is 2 µg/mL. The “MIC … K. pneumoniae CTX-M-15” value in test [3] stood at 1 µg/mL. Moreover, the “MIC of example compound, E. cloacae P99+” value in test [4] was determined as 1 µg/mL. Moreover, in test [5], the “MIC … K. pneumoniae KPC-2” value turned out to be 0.03 µg/mL. For the same compound, the “MIC … P. aeruginosa VIM-2” value in test [6] was more than 8 µg/mL.

For the compound `CC/C(=N/O)C(=O)N[C@@H](Cc1cccc(C(=O)O)c1O)B(O)O` [Example 55, 3-[2(R)-(2-hydroxyimino-butyrylamino)-2-borono-ethyl]-2-hydroxy-benzoic acid], the IC50 against SHV-5 β-lactamase is 120 nM; on CTX-M15 β-lactamase it was 1 nM; on p99 AmpC β-lactamase (setting [7]), 0.5 nM; on KPC-2 β-lactamase, 6 nM; in test [1], more than 1000 nM; at OXA-23 β-lactamase, 67 nM. For the same compound, in test [2], the “MIC of example compound, E. coli SHV-5” value was determined as 2 µg/mL. In addition, the “MIC … K. pneumoniae CTX-M-15” value in test [3] was determined as 2 µg/mL. Moreover, the “MIC of example compound, E. cloacae P99+” value in [4] worked out at 1 µg/mL. The “MIC … K. pneumoniae KPC-2” value in [5] is 0.06 µg/mL. Moreover, the “MIC … P. aeruginosa VIM-2” value in test [6] is more than 8 µg/mL.

For the compound `CCC(=O)C(=O)N[C@@H](Cc1cccc(C(=O)O)c1O)B(O)O` [Example 56, 3-[2(R)-(2-oxo-butyrylamino)-2-borono-ethyl]-2-hydroxy-benzoic acid], the 50% inhibitory concentration (IC50) on SHV-5 β-lactamase is 195 nM; at CTX-M15 β-lactamase, 11 nM; at p99 AmpC β-lactamase (setting [7]) it was 2 nM; on KPC-2 β-lactamase, 24 nM; in test [1], more than 1000 nM; on OXA-23 β-lactamase, 31 nM. Besides, in [2], the “MIC of example compound, E. coli SHV-5” value is more than 8 µg/mL. For the same compound, in [3], the “MIC … K. pneumoniae CTX-M-15” value is 4 µg/mL. In addition, the “MIC of example compound, E. cloacae P99+” value in test [4] amounted to 2 µg/mL. For the same compound, the “MIC … K. pneumoniae KPC-2” value in test [5] amounted to 0.25 µg/mL. For the same compound, the “MIC … P. aeruginosa VIM-2” value in test [6] was more than 8 µg/mL.

In the case of “(1R)-[3-{(2-hydroxy-ethylamino)-methyl}-benzoylamino]-(3-carboxy-2-hydroxy)benzyl-methylboronic acid formate [Example 43]”, the IC50 is 4 nM at SHV-5 β-lactamase (setting [8]); 12 nM on CTX-M15 β-lactamase (setting [9]); 9 nM at p99 AmpC β-lactamase (setting [7]); 70 nM at KPC-2 β-lactamase (setting [10]); 184 nM in test [1]; 38 nM on OXA-23 β-lactamase. In addition, in [2], the “MIC of example compound, E. coli SHV-5” value was determined as 2 µg/mL. Besides, the “MIC … K. pneumoniae CTX-M-15” value in test [3] turned out to be 0.5 µg/mL. Moreover, the “MIC of example compound, E. cloacae P99+” value in test [4] turned out to be 0.5 µg/mL. In addition, in [5], the “MIC … K. pneumoniae KPC-2” value was less than 0.015 µg/mL. Further, the “MIC … P. aeruginosa VIM-2” value in test [6] was more than 8 µg/mL.

On to “(2R)-3-[(2-[(2-chloro-pyridin-4-yl-acetyl)-amino]-2-borono-ethyl]-2-hydroxy-benzoic acid hydrochloride [Example 47]”, for which the IC50 on SHV-5 β-lactamase (setting [8]) was 1 nM; on CTX-M15 β-lactamase (setting [9]) it was 2 nM; at p99 AmpC β-lactamase (setting [7]), 5 nM; at KPC-2 β-lactamase (setting [10]), 2 nM; in [1], more than 1000 nM; on OXA-23 β-lactamase, 132 nM. Besides, in test [2], the “MIC of example compound, E. coli SHV-5” value stood at 0.25 µg/mL. The “MIC … K. pneumoniae CTX-M-15” value in test [3] worked out at 0.25 µg/mL. Also, in [4], the “MIC of example compound, E. cloacae P99+” value stood at 1 µg/mL. Moreover, the “MIC … K. pneumoniae KPC-2” value in test [5] was found to be 0.03 µg/mL. In addition, the “MIC … P. aeruginosa VIM-2” value in [6] was more than 8 µg/mL.
